From article PMC7462985, “Inhibitors of BRAF dimers using an allosteric site” (Nature Communications, 2020)

Key:
[1] = test system: RAS^MUT/BRAF^WT melanoma or lung cancer cells (SKMEL-30, SKMEL-2, CALU6); experiment: ERK signaling inhibition by western blot; settings: RAS^MUT/BRAF^WT cells, 1 h
[2] = test system: A375 cells (BRAF^V600E monomers); experiment: p-ERK inhibition by western blot; settings: A375 cells
BRAF^WT = target: T1, BRAF^WT (Homo sapiens, UniProt P15056); experiment: SelectScreen Z'-LYTE kinase activity assay; assay type: biochemical; settings: 100 μM ATP
T1 construct: purchased Invitrogen (SelectScreen service)
T1 sequence (P15056 whole entry): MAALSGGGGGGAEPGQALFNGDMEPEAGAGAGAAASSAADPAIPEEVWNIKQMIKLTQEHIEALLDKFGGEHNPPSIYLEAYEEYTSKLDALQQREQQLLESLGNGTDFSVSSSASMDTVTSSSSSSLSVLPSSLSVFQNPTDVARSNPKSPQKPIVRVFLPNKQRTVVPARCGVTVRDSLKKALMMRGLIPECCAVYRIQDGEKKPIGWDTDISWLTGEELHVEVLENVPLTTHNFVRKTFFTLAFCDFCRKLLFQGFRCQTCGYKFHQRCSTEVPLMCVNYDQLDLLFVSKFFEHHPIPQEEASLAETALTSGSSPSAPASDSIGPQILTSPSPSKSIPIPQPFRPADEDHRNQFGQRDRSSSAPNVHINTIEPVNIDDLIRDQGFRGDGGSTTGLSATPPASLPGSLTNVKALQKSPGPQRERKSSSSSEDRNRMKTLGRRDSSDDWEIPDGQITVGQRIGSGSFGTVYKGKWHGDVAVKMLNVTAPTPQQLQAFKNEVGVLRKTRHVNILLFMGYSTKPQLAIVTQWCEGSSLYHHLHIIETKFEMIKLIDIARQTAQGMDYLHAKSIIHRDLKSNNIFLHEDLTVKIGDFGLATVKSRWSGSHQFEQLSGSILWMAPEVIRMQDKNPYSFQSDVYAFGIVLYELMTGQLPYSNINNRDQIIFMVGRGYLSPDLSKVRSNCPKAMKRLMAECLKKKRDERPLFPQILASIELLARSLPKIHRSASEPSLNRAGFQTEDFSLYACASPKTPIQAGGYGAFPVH
Method: (§1) BRAF kinase assays were performed using the Z’-LYTE™ enzymatic assay (Invitrogen, USA). […] Titrations were performed using a 1:3 dilution. Assays were performed using SelectScreen (Invitrogen).

BRAF^V600E = BRAF^V600E (Homo sapiens, UniProt P15056, V600E); experiment: SelectScreen Z'-LYTE kinase activity assay; assay type: biochemical; set-up: purchased Invitrogen (SelectScreen service); settings: 100 μM ATP
Sequence of BRAF^V600E (P15056 whole entry V600E): as the sequence (P15056 whole entry) above, with V600E counted along it
Method: as §1

| Structure (SMILES) | effect on p-ERK levels (in words) [1] | concentration that robustly inhibits ERK signaling ([2]; 3 hrs, immunoblot) | inhibitory activity for BRAF^V600E monomers in comparison to PHI1 (in words) ([2]; 1 h) | IC50 (BRAF^WT) | IC50 (BRAF^V600E) |
| --- | --- | --- | --- | --- | --- |
| CCCS(=O)(=O)Nc1ccc(F)c(C(=O)c2c[nH]c3ncc(-c4ccc(Cl)cc4)cc23)c1F [Vemurafenib] | enhances p-ERK levels | 0.3 µM | – | – | – |
| CCc1cc(N2CCC(NCc3ccc(NC(=O)c4ccc(C)c(C#Cc5cnc6cccnn56)c4)cc3C(F)(F)F)CC2)ncn1 [PHI2] | – | – | increased | 598 ± 113 nM | 35 ± 2.8 nM |
